Test results: ChEMBL document CHEMBL5154648, “Antitumor activity of novel POLA1-HDAC11 dual inhibitors” (Eur J Med Chem, 2022)
pIC50: −log10 of the molar value. Calls of active or inactive are those of the source. The rule behind the calls is not given here.

Key:
[1] = Antiproliferative activity against multi-drug resistant human A2780-DX cells incubated for 24 hrs followed by incubating in drug-free medium for 48 hrs and measured by SRB assay; assay type: functional, cell-based
[2] = Resistance index, ratio of IC50 for human A2780 cells to IC50 for A2780-DX cells; assay type: functional
A2780 = assay: Antiproliferative activity against human A2780 cells incubated for 24 hrs followed by incubating in drug-free medium for 48 hrs and measured by SRB assay; assay type: functional, cell-based
NCI-H460 [3] = assay: Antiproliferative activity against human NCI-H460 cells incubated for 24 hrs followed by incubating in drug-free medium for 48 hrs and measured by SRB assay; assay type: functional, cell-based
[4] = Antiproliferative activity against human H460-R9A cells incubated for 24 hrs followed by incubating in drug-free medium for 48 hrs and measured by SRB assay; assay type: functional, cell-based
[5] = Resistance index, ratio of IC50 for human NCI-H460 cells to IC50 for H460-R9A cells; assay type: functional
NCI-H460 [6] = assay: Induction of DNA damage in human NCI-H460 cells at 7.4 uM assessed as increase in p-H2AX levels and measured by Western blot analysis; assay type: functional, cell-based
[7] = Induction of cell cycle arrest in human H460-R9A cells assessed as accumulation of cells at G2/M phase at 1.9 uM after 72 hrs by flow cytometry (reference value: 15.4%); assay type: functional
NCI-H460 [8] = assay: Induction of cell cycle arrest in human NCI-H460 cells assessed as accumulation of cells at sub-G1 phase at 4.2 uM after 72 hrs by flow cytometry (reference value: 1.1%); assay type: functional
NCI-H460 [9] = assay: Induction of cell cycle arrest in human NCI-H460 cells assessed as accumulation of cells at S phase at 4.2 uM after 72 hrs by flow cytometry (reference value: 32.1%); assay type: functional
NCI-H460 [10] = assay: Induction of cell cycle arrest in human NCI-H460 cells assessed as accumulation of cells at G2/M phase at 4.2 uM after 72 hrs by flow cytometry (reference value: 21.1%); assay type: functional
[11] = Induction of cell cycle arrest in human H460-R9A cells assessed as accumulation of cells at S phase at 1.9 uM after 72 hrs by flow cytometry (reference value: 34.5%); assay type: functional
NCI-H460 [12] = assay: Induction of cell cycle arrest in human NCI-H460 cells assessed as accumulation of cells at G0/1 phase at 4.2 uM after 72 hrs by flow cytometry (reference value: 46.8%); assay type: functional
L-428 = assay: Antiproliferative activity against human L-428 cells incubated for 24 hrs followed by incubating in drug-free medium for 48 hrs and measured by SRB assay; assay type: functional, cell-based
NCI-H460 [13] = assay: Antiproliferative activity against human NCI-H460 cells at 7.4 uM assessed as reduction in p-ERK1/2 level and measured by Western blot analysis; assay type: functional, cell-based
[14] = Induction of cell cycle arrest in human H460-R9A cells assessed as accumulation of cells at sub-G1 phase at 1.9 uM after 72 hrs by flow cytometry (reference value: 1.5%); assay type: functional
NCI-H460 [15] = assay: Antiproliferative activity against human NCI-H460 cells at 7.4 uM assessed as reduction in PIN1 level and measured by Western blot analysis; assay type: functional, cell-based
[16] = Induction of cell cycle arrest in human H460-R9A cells assessed as accumulation of cells at G0/1 phase at 1.9 uM after 72 hrs by flow cytometry (reference value: 50.1%); assay type: functional
[17] = target: T1, DNA polymerase alpha catalytic subunit (Homo sapiens) (UniProt P09884); assay: Inhibition of POLA1 in human NCI-H460 cells at 7.4 uM assessed as upregulation of p21 expression and measured by Western blot analysis; assay type: cell-based
T1 sequence (whole entry): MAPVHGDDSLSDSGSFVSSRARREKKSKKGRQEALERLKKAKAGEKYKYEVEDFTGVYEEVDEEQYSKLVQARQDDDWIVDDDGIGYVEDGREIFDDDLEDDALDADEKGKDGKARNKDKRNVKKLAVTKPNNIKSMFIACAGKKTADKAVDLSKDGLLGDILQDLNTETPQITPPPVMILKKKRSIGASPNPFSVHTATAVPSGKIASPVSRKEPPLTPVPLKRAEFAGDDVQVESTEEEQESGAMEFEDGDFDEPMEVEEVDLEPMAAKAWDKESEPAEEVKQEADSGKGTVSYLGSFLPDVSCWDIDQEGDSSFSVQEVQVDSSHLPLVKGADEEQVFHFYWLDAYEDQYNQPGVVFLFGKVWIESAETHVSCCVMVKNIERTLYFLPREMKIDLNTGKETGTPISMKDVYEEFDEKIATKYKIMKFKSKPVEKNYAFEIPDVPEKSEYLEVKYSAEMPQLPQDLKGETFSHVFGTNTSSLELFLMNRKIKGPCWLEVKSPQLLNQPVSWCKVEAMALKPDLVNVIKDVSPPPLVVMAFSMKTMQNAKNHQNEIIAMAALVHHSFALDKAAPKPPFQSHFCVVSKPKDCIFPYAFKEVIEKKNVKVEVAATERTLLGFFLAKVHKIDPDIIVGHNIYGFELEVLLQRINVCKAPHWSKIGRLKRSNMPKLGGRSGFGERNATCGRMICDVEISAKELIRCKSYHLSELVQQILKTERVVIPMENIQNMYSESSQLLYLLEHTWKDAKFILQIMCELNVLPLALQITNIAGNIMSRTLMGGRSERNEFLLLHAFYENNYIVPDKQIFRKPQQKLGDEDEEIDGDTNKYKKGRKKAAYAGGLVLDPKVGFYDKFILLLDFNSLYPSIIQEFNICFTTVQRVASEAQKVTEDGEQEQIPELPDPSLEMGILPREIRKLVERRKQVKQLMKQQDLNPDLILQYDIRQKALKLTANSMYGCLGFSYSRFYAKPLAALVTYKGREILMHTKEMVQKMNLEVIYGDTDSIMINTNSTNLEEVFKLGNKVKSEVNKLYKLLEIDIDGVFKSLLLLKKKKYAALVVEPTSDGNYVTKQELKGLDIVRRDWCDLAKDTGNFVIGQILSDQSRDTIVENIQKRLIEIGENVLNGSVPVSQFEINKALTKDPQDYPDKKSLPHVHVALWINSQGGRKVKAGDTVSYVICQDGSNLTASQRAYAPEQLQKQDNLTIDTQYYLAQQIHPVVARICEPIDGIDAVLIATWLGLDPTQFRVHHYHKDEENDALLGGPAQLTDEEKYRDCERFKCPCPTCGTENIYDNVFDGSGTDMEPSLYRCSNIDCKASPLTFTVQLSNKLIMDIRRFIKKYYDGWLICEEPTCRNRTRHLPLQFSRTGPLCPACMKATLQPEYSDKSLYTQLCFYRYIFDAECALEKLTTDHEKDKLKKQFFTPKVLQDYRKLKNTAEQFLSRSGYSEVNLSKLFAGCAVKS

H460-R9A = assay: Antiproliferative activity against human H460-R9A cells at 3.75 to 60 uM after 72 hrs by MTT assay; assay type: functional, cell-based; conditions: dose 3.75-60 µM

Row | Compound | pIC50 [1] | Ratio IC50 [2] | pIC50 (A2780) | pIC50 (NCI-H460 [3]) | pIC50 [4] | Ratio IC50 [5] | also measured
1 | O=C(O)C=Cc1ccc(-c2ccc(OCCC(=O)O)c(C34CC5CC(CC(C5)C3)C4)c2)cc1 | 4.62 | 2.38 | 5.00 | 5.00 | < 5.00 | – | –
2 | O=C(O)C=Cc1ccc(-c2ccc(OCCCCC(=O)NO)c(C34CC5CC(CC(C5)C3)C4)c2)cc1 | 5.19 | 1.7 | 5.44 | 5.72 | 5.07 | 4.5 | –
3 | O=C(O)C=Cc1ccc(-c2ccc(OCCCCCCCC(=O)NO)c(C34CC5CC(CC(C5)C3)C4)c2)cc1 | – | – | – | 5.26 | 5.02 | 1.7 | –
4 | O=C(O)C=Cc1ccc(-c2ccc(OCCCC(=O)NO)c(C34CC5CC(CC(C5)C3)C4)c2)cc1 | 5.41 | 0.9 | 5.38 | 5.77 | 5.08 | 4.9 | –
5 | CC(C)(Oc1ccc(-c2ccc(C=CC(=O)O)cc2)cc1C12CC3CC(CC(C3)C1)C2)C(=O)NO | – | – | – | 5.89 | 5.14 | 5.6 | –
6 | O=C(O)C=Cc1ccc(-c2ccc(OCCC(=O)NO)c(C34CC5CC(CC(C5)C3)C4)c2)cc1 | – | – | – | 5.08 | 4.97 | 1.3 | –
7 | O=C(O)C=Cc1ccc(-c2ccc(OCC(=O)O)c(C34CC5CC(CC(C5)C3)C4)c2)cc1 | – | – | – | < 5.00 | < 5.00 | – | –
8 | O=C(CCCCCCC(=O)Nc1ccccc1)NO [VORINOSTAT] | 4.48 | – | – | – | – | – | Activity (NCI-H460 [6]): Active; Activity [7]: 21%; Activity (NCI-H460 [8]): 1.8%; Activity (NCI-H460 [9]): 11.7%; Activity (NCI-H460 [10]): 23.1%; Activity [11]: 14.7%; Activity (NCI-H460 [12]): 65.2%; pIC50 (L-428): 5.64; Activity (NCI-H460 [13]): Active; Activity [14]: 2.1%; Activity (NCI-H460 [15]): Active; Activity [16]: 62.2%; inhibition [17]: Active
9 | CCCCCCCCCCCCCCCCNNC(=O)c1cccs1 | – | – | – | – | – | – | Activity (H460-R9A): Active
